Source: patent US20250368627A1, “PYRAZOLESULFONAMIDES AS ANTITUMOR AGENTS” (Peloton Therapeutics, Inc., a fully owned subsidiary of …, priority 2019, published 2025)

Experiments:
[1] = tested on: HCT116 colorectal carcinoma cells; test: In vivo efficacy study, HCT116 xenograft; set-up: species or system Athymic Nude mice
Source text: Compound 3 were formulated with 10% absolute ethanol, 30% PEG400, 60% water containing 0.5% methyl cellulose and 0.5% Tween80®. 2×10^6 HCT116 colorectal carcinoma cells (ATCC® CCL-247) in PBS and Matrigel (1:1 in volume) were inoculated subcutaneously in the right flank of Athymic Nude mice at 6-7 weeks of age for tumor development. When the xenografts reached about 150 mm^3 in size, the tumor bearing mice were randomly grouped into six groups (n=6) and treated by oral gavage with vehicle (10% absolute ethanol, 30% PEG400, 60% water containing 0.5% methyl cellulose and 0.5% Tween80®, BID) or compound 3 at 100 mg/kg BID for 12 days. Tumor sizes were measured twice weekly in two dimensions using a caliper and the volume were expressed in mm^3 using the formula V=0.5×a×b^2 wherein a and b were the long and short diameters of the tumor, respectively. The efficacy study for compound 136 was carried out in the same manner as that of compound 3 except compound 136 was dosed at 30 mg/kg BID for 12 days.

[2] = molecular target: T1, DDB1DB/DCAF15 and RBM39 R1R2 complex (Homo sapiens, UniProt Q14498+Q66K64); test: DCAF15 RBM39 Complex Formation Assay (FRET); assay type: binding; details: FRET ratio Em 665/Em 615, incubated overnight at 4° C.
T1 construct: Amino acids 150 to 331 of RBM39 were cloned into pGEX4T3; GST (from vector pGEX4T3); TEV cleavage site (N); made in house; host or cells: DDB1DB/His-DCAF15: baculovirus/Sf9 co-expression; RBM39 R1R2: E. coli (pGEX4T3)
T1 sequence (Q66K64 whole entry, the tested form may be a part): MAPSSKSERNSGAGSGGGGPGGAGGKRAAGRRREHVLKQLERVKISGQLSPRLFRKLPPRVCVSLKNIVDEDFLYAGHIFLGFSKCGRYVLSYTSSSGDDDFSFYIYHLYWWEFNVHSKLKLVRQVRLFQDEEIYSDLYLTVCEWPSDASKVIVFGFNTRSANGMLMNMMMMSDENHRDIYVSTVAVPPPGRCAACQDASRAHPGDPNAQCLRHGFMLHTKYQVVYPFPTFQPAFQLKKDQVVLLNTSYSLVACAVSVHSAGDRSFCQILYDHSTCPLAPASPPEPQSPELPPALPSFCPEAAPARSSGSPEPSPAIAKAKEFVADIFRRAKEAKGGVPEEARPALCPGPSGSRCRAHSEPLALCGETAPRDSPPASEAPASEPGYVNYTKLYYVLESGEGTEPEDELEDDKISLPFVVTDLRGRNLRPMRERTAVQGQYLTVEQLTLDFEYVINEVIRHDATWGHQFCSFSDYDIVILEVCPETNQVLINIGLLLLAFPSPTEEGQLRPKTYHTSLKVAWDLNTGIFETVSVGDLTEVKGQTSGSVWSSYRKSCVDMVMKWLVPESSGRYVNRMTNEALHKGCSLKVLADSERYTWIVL
T1 sequence (Q14498 150-331): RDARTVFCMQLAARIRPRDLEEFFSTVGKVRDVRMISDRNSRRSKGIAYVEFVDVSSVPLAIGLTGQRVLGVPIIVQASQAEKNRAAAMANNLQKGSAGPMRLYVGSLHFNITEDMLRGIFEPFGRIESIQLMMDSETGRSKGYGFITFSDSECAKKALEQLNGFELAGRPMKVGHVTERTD
T1 sequence (Q16531 with tags, fused parts or gaps DEL396-708 partner): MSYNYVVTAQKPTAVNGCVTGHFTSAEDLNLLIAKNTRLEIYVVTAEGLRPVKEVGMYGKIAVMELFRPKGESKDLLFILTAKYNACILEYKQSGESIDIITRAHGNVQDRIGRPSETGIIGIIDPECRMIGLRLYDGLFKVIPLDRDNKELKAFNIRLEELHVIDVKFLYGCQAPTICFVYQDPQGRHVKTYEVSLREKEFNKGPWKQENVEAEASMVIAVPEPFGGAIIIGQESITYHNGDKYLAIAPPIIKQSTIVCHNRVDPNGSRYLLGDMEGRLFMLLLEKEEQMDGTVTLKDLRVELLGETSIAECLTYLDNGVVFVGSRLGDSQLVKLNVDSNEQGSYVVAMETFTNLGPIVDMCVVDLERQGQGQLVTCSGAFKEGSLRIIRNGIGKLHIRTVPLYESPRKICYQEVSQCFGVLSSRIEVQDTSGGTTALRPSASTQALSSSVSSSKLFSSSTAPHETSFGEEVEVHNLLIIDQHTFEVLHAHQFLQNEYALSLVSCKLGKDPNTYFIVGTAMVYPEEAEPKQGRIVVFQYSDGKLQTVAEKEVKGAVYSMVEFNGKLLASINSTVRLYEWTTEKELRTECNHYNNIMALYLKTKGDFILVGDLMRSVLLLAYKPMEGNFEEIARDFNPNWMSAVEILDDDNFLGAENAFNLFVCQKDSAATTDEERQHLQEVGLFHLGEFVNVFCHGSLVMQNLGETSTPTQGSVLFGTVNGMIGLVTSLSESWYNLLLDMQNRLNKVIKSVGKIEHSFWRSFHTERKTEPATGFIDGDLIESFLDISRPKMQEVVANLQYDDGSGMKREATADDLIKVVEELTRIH
Outline: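 Ternary complex formation read by TR-FRET (Em 665/615, excitation 340 nm) after overnight incubation at 4° C of 20 nM baculovirus DDB1DB/His-DCAF15 and 50 nM E. coli RBM39 RRM1-RRM2 FLAG fragment with 14-point, 3-fold compound dilutions from 1 μM; EC50 from 4-parameter fit.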

[3] = tested on: HCT116 human colorectal carcinoma cells; test: CellTiter-Glo Luminescent Cell Viability Assay; assay type: cell-based; details: HCT-116, 72 h, 3 days
Outline: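 HCT116 cells were exposed for 3 days to compound in triplicate at final concentrations of 5 to 0.0002 […] (1:3 dilutions). Viability was read by CellTiter-Glo luminescence, and IC50 values were calculated.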

[4] = cited from earlier work
[5] = cited from earlier work; for treatment-induced myelosuppressive effect: clinical dosing, indisulam 700 mg/m^2 IV every 3 weeks, E7820 100 mg q.d. oral; for oral bioavailability: in vivo
[6] = 30 mg/kg BID oral gavage for 12 days, HCT116 xenograft mice

Q: With `CC(C)(O)Cn1cc(S(=O)(=O)Nc2ccc(Cl)c3c(C#N)c[nH]c23)cn1` [Compound 136, N-(4-chloro-3-cyano-1H-indol-7-yl)-1-(2-hydroxy-2-methyl-propyl)pyrazole-4-sulfonamide] as the compound, how does the “Body Weight (g) Mean ± SEM” value [1, 6] read?
A: 21.4 ± 0.14 g

Q: What about the “Tumor Volume (mm^3) Mean ± SEM” value [1, 6] of the same compound?
A: 175.7 ± 12.3 mm^3

Q: What about the “Tumor Weight (g) Mean ± SD” value [1, 6] of the same compound?
A: .083 ± 0.06 g

Q: And the “body weight versus vehicle group” value ([1]; HCT116 mouse model, compound 3 100 mg/kg BID, compound 136 30 mg/kg BID, 12 days)?
A: no significant difference

Q: What about the “reduction of tumor volume and tumor weight” value ([1]; HCT116 mouse model, compound 3 100 mg/kg BID, compound 136 30 mg/kg BID, 12 days, versus vehicle) of the same compound?
A: statistically significant reduction

Q: And the IC50 [2]?
A: < 250 nM

Q: What about the EC50 [3] of the same compound?
A: 250 to 1000 nM

Q: With `Cc1ccc(NS(=O)(=O)c2cccc(C#N)c2)c2[nH]cc(C#N)c12` [Compound E7820, E7820] as the compound, how does the “measured drug concentration available (free drug)” value ([4]; according to the free drug principle) read?
A: less than 1%

Q: And the plasma protein binding [4]?
A: greater than 99%

Q: What about the treatment-induced myelosuppressive effect [5] of the same compound?
A: same myelosuppressive effects

Q: And the oral bioavailability [5]?
A: good oral bioavailability

Q: With `NS(=O)(=O)c1ccc(S(=O)(=O)Nc2cccc3c(Cl)c[nH]c23)cc1` [Indisulam, indisulam] as the compound, how does the treatment-induced myelosuppressive effect [5] read?
A: treatment-induced myelosuppressive effect

Q: What about the oral bioavailability [5] of the same compound?
A: poor oral bioavailability
